Test results published in PubChem BioAssay AID256 (DTP/NCI, 2004).
Values joined by “and” are separate entries in the source; they are usually repeats but may differ in a detail not shown here. Equal entries are not always repeated. Inconclusive results and toxic doses are left out.

Test system: CD2F1 mice, L1210 leukemia ip, survival T/C
Experiment: NCI In Vivo Anticancer Drug Screen. Data for tumor model L1210 Leukemia (intraperitoneal) in CD2F1 (CDF1) mice
Settings: higher = longer survival
Procedure, shortened: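 Antitumor effect is scored in animals hosting a serially transplanted tumor. Values compare compound-dosed animals against vehicle-only controls as a simple quotient.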

[1] = endpoint: mean survival time, dose: 50.0 mg/kg/injection, schedule: Q01DX009 (ip), vehicle: saline with Tween-80
[2] = endpoint: mean survival time, dose: 100.0 mg/kg/injection, schedule: Q01DX009 (ip), vehicle: saline with Tween-80
[3] = endpoint: mean survival time, dose: 100.0 mg/kg/injection, schedule: Q01DX001 (ip), vehicle: saline with Tween-80
[4] = endpoint: mean survival time, dose: 200.0 mg/kg/injection, schedule: Q01DX001 (ip), vehicle: saline with Tween-80
[5] = endpoint: mean survival time, dose: 100.0 mg/kg/injection, schedule: Q04DX003 (ip), vehicle: saline with Tween-80
[6] = endpoint: mean survival time, dose: 200.0 mg/kg/injection, schedule: Q04DX003 (ip), vehicle: saline with Tween-80
[7] = endpoint: mean survival time, dose: 400.0 mg/kg/injection, schedule: Q04DX003 (ip), vehicle: saline with Tween-80
[8] = endpoint: mean survival time, dose: 100.0 mg/kg/injection, schedule: Q01DX009 (ip), vehicle: other
[9] = endpoint: mean survival time, dose: 200.0 mg/kg/injection, schedule: Q01DX009 (ip), vehicle: other
[10] = endpoint: mean survival time, dose: 400.0 mg/kg/injection, schedule: Q01DX001 (ip), vehicle: saline with Tween-80
[11] = endpoint: mean survival time, dose: 100.0 mg/kg/injection, schedule: Q01DX001 (ip), vehicle: saline
[12] = endpoint: mean survival time, dose: 200.0 mg/kg/injection, schedule: Q01DX001 (ip), vehicle: saline
[13] = endpoint: mean survival time, dose: 400.0 mg/kg/injection, schedule: Q01DX001 (ip), vehicle: saline
[14] = endpoint: mean survival time, dose: 200.0 mg/kg/injection, schedule: Q01DX009 (ip), vehicle: saline with Tween-80
[15] = endpoint: mean survival time, dose: 100.0 mg/kg/injection, schedule: Q01DX009 (ip), vehicle: saline
[16] = endpoint: mean survival time, dose: 200.0 mg/kg/injection, schedule: Q01DX009 (ip), vehicle: saline

CC(C)CC1(C(C)C)C(=O)NC(=S)NC1=O
T/C (endpoint: mean survival time, dose: 5.0 mg/kg/injection, schedule: Q01DX001 (ip), vehicle: saline): 102 % of control | T/C (endpoint: mean survival time, dose: 10.0 mg/kg/injection, schedule: Q01DX001 (ip), vehicle: saline): 96 % of control | T/C (endpoint: mean survival time, dose: 20.0 mg/kg/injection, schedule: Q01DX001 (ip), vehicle: saline): 98 % of control | T/C (endpoint: mean survival time, dose: 40.0 mg/kg/injection, schedule: Q01DX001 (ip), vehicle: saline): 101 % of control

CN(Cc1cnc2nc(N)nc(N)c2n1)c1ccc(C(=O)NC(CCC(=O)O)C(=O)NC(CC(=O)O)C(=O)O)cc1 (stereo not drawn)
T/C (endpoint: mean survival time, dose: 1.0 mg/kg/injection, schedule: Q01DX009 (ip), vehicle: sodium bicarbonate): 100 % of control | T/C (endpoint: mean survival time, dose: 2.0 mg/kg/injection, schedule: Q01DX009 (ip), vehicle: sodium bicarbonate): 111 % of control | T/C (endpoint: mean survival time, dose: 5.0 mg/kg/injection, schedule: Q01DX009 (ip), vehicle: sodium bicarbonate): 121 % of control | T/C (endpoint: mean survival time, dose: 50.0 mg/kg/injection, schedule: Q01DX009 (ip), vehicle: sodium bicarbonate): 105 % of control

OC1c2ccccc2CC1N1CCCCC1 (stereo not drawn)
T/C (endpoint: mean survival time, dose: 25.0 mg/kg/injection, schedule: Q01DX009 (ip), vehicle: saline with Tween-80): 95 % of control | T/C [1]: 101 % of control | T/C [2]: 98 % of control

CCCCNc1cc(=O)[nH]c(=O)[nH]1
T/C (endpoint: mean survival time, dose: 50.0 mg/kg/injection, schedule: Q01DX001 (ip), vehicle: saline with Tween-80): 104 % of control | T/C [3]: 98 % of control | T/C [4]: 102 % of control

CCCCCCCCCCCCCCCc1nnc(SC)s1
T/C [1]: 95 % of control | T/C [2]: 88 % of control | T/C [5]: 91 % of control | T/C [6]: 87 % of control | T/C [7]: 96 % of control

CCCNCCNc1ccc(NCCNCCC)c2c1C(=O)c1ccccc1C2=O
T/C (endpoint: mean survival time, dose: 4.0 mg/kg/injection, schedule: Q01DX009 (ip), vehicle: acid diluted with saline): 100 % of control | T/C (endpoint: mean survival time, dose: 8.0 mg/kg/injection, schedule: Q01DX009 (ip), vehicle: acid diluted with saline): 110 % of control | T/C (endpoint: mean survival time, dose: 16.0 mg/kg/injection, schedule: Q01DX009 (ip), vehicle: acid diluted with saline): 110 % of control | T/C (endpoint: mean survival time, dose: 32.0 mg/kg/injection, schedule: Q01DX009 (ip), vehicle: acid diluted with saline): 93 % of control

CN(C)C=NCCc1ccccc1
T/C (endpoint: mean survival time, dose: 50.0 mg/kg/injection, schedule: Q01DX001 (ip), vehicle: saline): 97 % of control

CC(=O)OCC1OC(OC(C)=O)C(NC(=O)Nc2cccc([N+](=O)[O-])c2)C(OC(C)=O)C1OC(C)=O (stereo not drawn)
T/C (endpoint: mean survival time, dose: 12.5 mg/kg/injection, schedule: Q01DX009 (ip), vehicle: other): 96 % of control | T/C (endpoint: mean survival time, dose: 25.0 mg/kg/injection, schedule: Q01DX009 (ip), vehicle: other): 96 % of control | T/C (endpoint: mean survival time, dose: 50.0 mg/kg/injection, schedule: Q01DX009 (ip), vehicle: other): 98 % of control | T/C [8]: 100 % of control | T/C [9]: 93 % of control

CN(C)/N=C/c1ccc(-c2ccccc2)cc1
T/C [3]: 101 % of control | T/C [4]: 103 % of control | T/C [10]: 112 % of control

CCOC(=O)C(C)C(=O)C(C)N1C(=O)c2ccccc2C1=O (stereo not drawn)
T/C (endpoint: mean survival time, dose: 12.5 mg/kg/injection, schedule: Q01DX009 (ip), vehicle: water): 95 % of control | T/C (endpoint: mean survival time, dose: 25.0 mg/kg/injection, schedule: Q01DX009 (ip), vehicle: water): 95 % of control | T/C (endpoint: mean survival time, dose: 50.0 mg/kg/injection, schedule: Q01DX009 (ip), vehicle: water): 95 % of control | T/C (endpoint: mean survival time, dose: 100.0 mg/kg/injection, schedule: Q01DX009 (ip), vehicle: water): 100 % of control | T/C (endpoint: mean survival time, dose: 200.0 mg/kg/injection, schedule: Q01DX009 (ip), vehicle: water): 96 % of control

O=CNc1cccc2ccc3c4ccccc4ccc3c12
T/C [5]: 98 % of control | T/C [7]: 91 % of control

COc1ccc2c(c1)C1(C)CCC(=O)C(C)=C1CC2 (stereo not drawn)
T/C [11]: 105 % of control | T/C [12]: 98 % of control | T/C [13]: 98 % of control

COc1cc(OC)c(NC(=O)Oc2ccc(F)cc2Cl)cc1Cl
T/C [1]: 88 % of control | T/C [2]: 100 % of control | T/C [14]: 103 % of control

CCC(N)C(O)C(C)C (stereo not drawn)
T/C [11]: 105 % of control | T/C [12]: 90 % of control | T/C [13]: 96 % of control

CC(C)[C@]1(O)CC[C@H]2[C@@H]3CCc4cc(O)ccc4[C@H]3CC[C@@]21C
T/C (endpoint: mean survival time, dose: 100.0 mg/kg/injection, schedule: Q01DX009 (sc), vehicle: Klucel (hydroxypropylcellulose) (HPC)): 104 % of control | T/C (endpoint: mean survival time, dose: 200.0 mg/kg/injection, schedule: Q01DX009 (sc), vehicle: Klucel (hydroxypropylcellulose) (HPC)): 98 % of control | T/C (endpoint: mean survival time, dose: 400.0 mg/kg/injection, schedule: Q01DX009 (sc), vehicle: Klucel (hydroxypropylcellulose) (HPC)): 92 % of control

O=C(N/N=C/c1ccc(O)cc1)c1ccccc1
T/C (endpoint: mean survival time, dose: 100.0 mg/kg/injection, schedule: Q01DX001 (ip), vehicle: other): 100 % of control | T/C (endpoint: mean survival time, dose: 100.0 mg/kg/injection, schedule: Q01DX009 (ip), vehicle: Klucel (hydroxypropylcellulose) (HPC)): 100 % of control | T/C (endpoint: mean survival time, dose: 200.0 mg/kg/injection, schedule: Q01DX001 (ip), vehicle: other): 94 % of control | T/C (endpoint: mean survival time, dose: 200.0 mg/kg/injection, schedule: Q01DX009 (ip), vehicle: Klucel (hydroxypropylcellulose) (HPC)): 96 % of control | T/C (endpoint: mean survival time, dose: 400.0 mg/kg/injection, schedule: Q01DX001 (ip), vehicle: other): 103 % of control | T/C (endpoint: mean survival time, dose: 400.0 mg/kg/injection, schedule: Q01DX009 (ip), vehicle: Klucel (hydroxypropylcellulose) (HPC)): 94 % of control

CCCCCCCCCCCCOP(=S)(OCC)OCC
T/C (endpoint: mean survival time, dose: 100.0 mg/kg/injection, schedule: Q04DX002 (ip), vehicle: saline with Tween-80): 98 % of control | T/C (endpoint: mean survival time, dose: 200.0 mg/kg/injection, schedule: Q04DX002 (ip), vehicle: saline with Tween-80): 95 % of control | T/C (endpoint: mean survival time, dose: 400.0 mg/kg/injection, schedule: Q04DX002 (ip), vehicle: saline with Tween-80): 91 % of control

COc1ccc(-c2cc(C(=O)O)c3cccc(C)c3n2)cc1
T/C [1]: 95 % of control | T/C [2]: 95 % of control | T/C [5]: 98 % of control | T/C [14]: 95 % of control | T/C [6]: 95 % of control

CCC(C)CC(C)C1=NC(C)(C)CC(C)O1 (stereo not drawn)
T/C [3]: 104 % of control | T/C [4]: 90 % of control

Nc1nc(=O)n(CCCOc2cccc(Cl)c2)cc1-c1ccc(Cl)c(Cl)c1
T/C [3]: 96 % of control | T/C [4]: 89 % of control | T/C [10]: 91 % of control

O=C1c2c(O)cccc2-c2nn(CCNCCO)c3ccc(NCCNCCO)c1c23
T/C (endpoint: median survival time, dose: 1.38 mg/kg/injection, schedule: Q01DX009 (ip), vehicle: water): 170 % of control | T/C (endpoint: median survival time, dose: 2.75 mg/kg/injection, schedule: Q01DX009 (ip), vehicle: water): 240 % of control and 370 % of control | T/C (endpoint: median survival time, dose: 5.5 mg/kg/injection, schedule: Q01DX009 (ip), vehicle: water): 222 % of control and 361 % of control | T/C (endpoint: median survival time, dose: 11.0 mg/kg/injection, schedule: Q01DX009 (ip), vehicle: water): 101 % of control and 107 % of control | T/C (endpoint: median survival time, dose: 22.0 mg/kg/injection, schedule: Q01DX009 (ip), vehicle: water): 87 % of control

COc1cc(OC)c2c(c1Cl)OCC2=O
T/C [2]: 91 % of control | T/C [5]: 103 % of control | T/C [14]: 91 % of control | T/C [6]: 94 % of control | T/C [7]: 97 % of control

CC(CCC(=O)O)(c1cc(Br)c(O)c(Br)c1)c1cc(Br)c(O)c(Br)c1
T/C [8]: 96 % of control | T/C [9]: 102 % of control | T/C (endpoint: mean survival time, dose: 400.0 mg/kg/injection, schedule: Q01DX009 (ip), vehicle: other): 101 % of control

N#CC(=C1CCN(Cc2ccccc2)CC1)c1ccccc1
T/C (endpoint: median survival time, dose: 50.0 mg/kg/injection, schedule: Q04DX002 (ip), vehicle: saline with Tween-80): 100 % of control | T/C (endpoint: median survival time, dose: 100.0 mg/kg/injection, schedule: Q04DX002 (ip), vehicle: saline with Tween-80): 100 % of control | T/C (endpoint: median survival time, dose: 200.0 mg/kg/injection, schedule: Q04DX002 (ip), vehicle: saline with Tween-80): 111 % of control

COc1ccccc1/C=C/c1ccnc2ccccc12
T/C [15]: 98 % of control | T/C [16]: 95 % of control | T/C (endpoint: mean survival time, dose: 400.0 mg/kg/injection, schedule: Q01DX009 (ip), vehicle: saline): 96 % of control

O=C(O)C1=C(C(=O)O)C2C3CC4C(C13)C42
T/C [5]: 101 % of control | T/C [6]: 100 % of control | T/C [7]: 88 % of control

O=C(OC1OC(CO)C(O)C(O)C1O)c1ccccc1 (stereo not drawn)
T/C (endpoint: mean survival time, dose: 50.0 mg/kg/injection, schedule: Q01DX009 (ip), vehicle: saline): 97 % of control | T/C [15]: 101 % of control | T/C [16]: 93 % of control

Cc1c(O)c(=O)n(-c2ccccc2)n1C
T/C [5]: 96 % of control | T/C [6]: 93 % of control | T/C [7]: 96 % of control
